Test results: patent US20240293327A1, “MONOLITHIC TABLETS BASED ON CARBOXYL POLYMERIC COMPLEXES FOR CONTROLLED DRUG RELEASE” (MATRIPHARM INTERNATIONAL INC., priority 2014, published 2024)
Where a name gives a salt, the structure may show the parent alone.

Columns and labels:
[1] = Beagle dog, oral, 500 mg, 1 dose
[2] = in vivo; conditions: male, beagle, dog, plasma, po, 500 mg
[3] = cited from earlier work

| Compound | Ke (terminal elimination rate per hour) [1] | AUC(0-inf) [2] | AUC(0-t) [2] | Cmax [2] | MRT [2] | Tmax [2] | Time to complete absorption after administration ([3]; estimated) | Absorbed in the remaining part of (lower) intestine tract ([3]; in vivo) | Recovered in faeces ([3]; in vivo) |
| --- | --- | --- | --- | --- | --- | --- | --- | --- | --- |
| CN(C)C(=N)N=C(N)N [Metformin (Matrix-free), metformin hydrochloride] | 0.157 h⁻¹ | 81200 ng·h/mL | 77900 ng·h/mL | 12400 ng/mL | 8.02 h | 1.3 h | – | – | – |
| CN(C)C(=N)N=C(N)N [Metformin] | – | – | – | – | – | – | ≤ 6 h | about 40% | up to 30% |
